# Results published in US11584741B2, “Crystalline forms of 4-(5-(4,7-dimethylbenzofuran-2-yl)-1,2,4-oxadiazol-3-yl)benzoic acid and processes for their preparation” (King's College London, priority 2016, dated 2023).
# Legend:
# [1] = test system: corticospinal tract (CST) of rats crushed at the C4 level; experiment: Corticospinal tract (CST) crush at C4 in rats, agonist applied to the lateral ventricle; format: in vivo; details: rat
# Procedure: The results are illustrated in Borthwick et al., 2016.
# All animal experiments were carried out under UK home office regulations. Dorsal column lesions were performed on adult male rats as previously described (see, e.g., Bradbury et al., 2002). […] The pumps were placed subcutaneously and connected to a brain infusion catheter (Alzet™), which was inserted into the lateral ventricle (Bregma coordinates: rostrocaudal: −0.8 mm, mediolateral: −1.5 mm and dorsoventral: −4.5 mm). […] The dose was based previous in vivo studies on activation of RARα and RARβ signalling in the adult rat brain (see, e.g., Goncalves et al., 2009). Animals which underwent behavioural studies and subsequent tracing (n=6 per treatment) were kept for six weeks before being sacrificed with a lethal injection of pentobarbital and transcardially perfused with 4% PFA. Dissected tissue (cervical and lumbar spinal cord) was processed for immunofluorescence.
# Descendent corticospinal tract axons were anterogradely traced after the dorsal column crush was performed by injected BDA (10% in PBS, Mw10K from Molecular Probes) into the motor cortex as previously described (see, e.g., Yip et al., 2006). Six injections were done in the right cortex (0.5 μL of BDA/injection point). Animals (n=6 per treatment) were perfused and the spinal cord was transferred to PBS (plus 0.1% sodium azide) and embedded in gelatin (10%, 300 bloom; Sigma, Poole, UK). Gelatin blocks were hardened in 4% paraformaldehyde, and 40 μm free-floating serial transverse sections were cut on a vibratome (Leica, Nussloch, Germany) and collected in 24-well plates containing PBS (plus 0.1% sodium azide).
# BDA was detected using the tyramide amplification kit (Perkin-Elmer) coupled with extra-avidin-FITC (Amersham Pharmacia Biotech, UK, 1:500). All BDA-labelled fibres observed within a 1-mm square grid were counted at measured intervals from 5 mm above to 5 mm below the lesion site by an experimenter, blinded to treatment.
# CST neurons were labelled by retrograde tracing injecting 2 μL of 5% Fluorogold (FG, Molecular Probes) 2 mm deep into the cervical spinal cord (C3-C4) at a rate of 0.5 μL/minute (n=3 rats per group). In sham animals, FG was injected 0.5 mm bilateral to the medial line of spinal cord (1 μL per side), and in lesioned animals FG (2 μL) was injected into the injury. After 14 days, the cortices were fixed for 2 hours in 4% paraformaldehyde (PFA), embedded in OCT compound and stored frozen. Sagittal sections (12 μm) were cut and 4 sequential slides containing 2 sections from lateral 3.4-3.9 mm were taken for analysis (see, e.g., Paxinos and Watson, 2002).
# Immunohistochemistry was carried out using anti-rabbit phospho-Akt (Cell Signalling technology, dilution of 1:100). Secondary antibody used was anti-rabbit Cy3 conjugated (Jackson, used at 1:1000). Images were captured at 100× magnification using a Roperscientific digital camera.
# The behavioural tests were carried out as previously described (see, e.g., Bradbury et al., 2002). Rats (n=6 per treatment group) were first trained for two weeks before surgery to perform grid walk and beam walk; they were then tested by an observer blinded to the experimental treatment once a week for five weeks after lesion.
# cortical explants = experiment: Neurite outgrowth from cultured cortex of treated lesioned animals; format: cell-based, rat; details: cortex of lesioned rats treated in vivo; vehicle: did not grow
# Procedure: When pieces of cortex from these RARβ agonist treated animals were cultured, neurite outgrowth was observed, in contrast to cortex from control lesioned animals.
# (§1) Cerebellar neurons isolated from post-natal day 3 rat pups were cultured over monolayers of parental 3T3 cells in control media, or media supplemented with a recombinant MAG-Fc chimera (R&D Systems) used at a final concentration of 20 μg/mL MAG-Fc. The monolayers were established for 24 hours prior to addition of the neurons and the co-cultures were maintained for approximately 21 hours. Following careful fixation with 4% paraformaldehyde, the neurons were immuno-stained with a GAP-43 antibody (from Graham Wilkin, Imperial College), dilution of 1:500, and the mean length of the longest neurite per cell was measured for approximately 120-150 neurons as previously described (see, e.g., Williams et al., 2005). DRG and cortical explants were obtained from adult rats, they were cultured in cellogen as previously described (see, e.g., Corcoran and Maden, 1999). Three explants per treatment were used. Neurite outgrowth was assessed 3 days later by immunohistochemistry with NF200 (Sigma, dilution of 1:200). The average lengths of the neurites were measured using image pro plus software. Media consisted of DMEM-F12 (Invitrogen) containing N2 (Invitrogen) supplemented with glucose (33 mM) and glutamine (2 mM).
# [2] = test system: rats with severed and re-implanted sensory roots at the level of the left forelimb; experiment: Sensory roots of four DRG severed and re-implanted into the spinal cord, sticky tape tests; format: in vivo; details: rat, after 5 weeks, 1 mg/kg three times a week
# Procedure: In another example of nerve injury, the four sensory roots from each of four DRG at the level of the left forelimb were severed and re-implanted into the spinal cord.
# The results are illustrated in Borthwick et al., 2016. […] Rats were treated with 1 mg/kg of the test compound or vehicle two days after lesion, and then three times a week for the period of the experiment. Error bars show SEM. ***P<0.001, students t test, n=3-4 rats for each treatment group. At weeks 3, 4, and 5, there was significant difference between the rats treated with RARβ agonist as compared to rats treated with other retinoid agonists and vehicle.
# cerebellar neurons = experiment: Neurite outgrowth assay, cerebellar neurons in the presence of myelin / MAG; format: cell-based, rat; details: cerebellar neurons grown in the presence of myelin
# Procedure: as §1
# [3] = test system: corticospinal tract (CST) of rats crushed at the C4 level; details: in vivo; Agudo et al., 2010; cited from earlier work
# [4] = i.c.v. 180 ng/kg/day for 14 days
structure (smiles),measurement,setting,value
"COc1ccc(-c2ccc3cc(C(=O)O)ccc3c2)cc1C1(C)CCCCC1 [CD2019, 6-(4-methoxy-3-(1-methylcyclohexyl)phenyl)-2-naphthalenecarboxylic acid]",Behavioural tests (grid and beam task),[1]; after 5 weeks,performed as well as non-lesioned animals
same,BDA-labelled CST axons crossing the lesion site,"[1]; after 5 weeks, vs vehicle (no axons across)",many axons were observed crossing the injury site
same,"Time to functional recovery, beam task",[1]; [4],2 weeks post lesion
same,"Time to functional recovery, grid task",[1]; [4],4 weeks post lesion
same,RARβ2 expression in the CST neuronal cell bodies,[1]; lateral ventricle for 2 weeks,upregulation of RARβ2
same,Axon growth from cultured adult cortex of treated animals,cortical explants,did grow
same,Behavioural test (sticky tape),[2],performed as well as non-lesioned animals
same,Neurite outgrowth,cerebellar neurons,causes the outgrowth of neurites
same,Phospho AKT in the injured CST neurons,[3],induced
